Entries after “also recorded” stand apart in the source; their conditions may differ. Like-named read-outs stand apart in the source and are kept apart here.
Key:
Assay type in all cases: cell-based
HIV-1 = experiment: HeLa CD4 LTR β-gal HIV-1 attachment assay (Experimental Example 1); conditions: for IC50: Human immunodeficiency virus 1, HeLa
[1] = Compound toxicity in the attachment assay, sister plates, MTS dye reduction; conditions: human, HeLa CD4 LTR β-gal cells, read-out: TC50
Procedure: At assay termination the assay plates were stained with the soluble tetrazolium-based dye MTS (CellTiter96® Reagent Promega) to determine cell viability and quantify compound toxicity. MTS is metabolized by the mitochondria enzymes of metabolically active cells to a soluble formazan product, allowing the rapid quantitative analysis cell viability and compound cytotoxicity. […] At termination of the assay 20 μL of MTS reagent was added per well and incubated for 4 h at 37° C. Adhesive plate sealers were used in place of the lids, the sealed plate was inverted several times to mix the soluble formazan product and the plate was read spectrophotometrically at 490 nm with a Molecular Devices Vmax plate reader.
The attachment assay was performed with the HeLa CD4 LTR β-gal cells available from the AIDS Research and Reference Reagent Repository. […] HeLa CD4 LTR β-gal cells express cell surface CD4 and contain an LTR β-galactosidase reporter construct. Upon infection either the Tat protein incorporated into the virion or new Tat produced following virus integration and transcription trans-activates the LTR β-gal reporter, leading to expression of the β-galactosidase enzyme. HeLa CD4 LTR β-gal cells are routinely cultured with the required selection antibiotics and screened for mycoplasma contamination. Twenty-four h prior to initiation of the assay cells were trypsinized, counted and 1×10^4 cells placed in a 0.2 cm well in media without selection antibiotics. […] A known titer of virus was then added to the wells and the incubation continued for 1 h. At the end of the incubation the wells were washed 6 times with media and the culture continued for 48 h. At 48 h the wells were washed one time with PBS and β-galactosidase enzyme expression determined by chemiluminescence per manufacturers instructions (Tropix Gal-screen™, Tropix, Bedford, Mass.). Compound toxicity was monitored on sister plates using MTS dye reduction.

[2] = tested on: interaction of HIV gp 120 with CD4 (HeLa CD4 LTR β-gal / HL2/3 cell fusion); experiment: HeLa CD4 LTR β-gal/HL2/3 HIV-1 fusion assay (Experimental Example 1); conditions: fusion assay
From the text: This assay uses the HeLa CD4 LTR β-gal and HL2-3 cells available from the AIDS Research and Reference Reagent Repository. The fusion assay utilizes HeLa CD4 LTR β-gal cells with HL2/3 cells as a fusion partner via the interaction of HIV gp 120 with CD4. HL2/3 cells express HIV-1 Env on their cell surface and contain an HIV-1 Tat expression cassette. Upon syncytium formation and plasma membrane fusion, cytoplasmic mixing of the HL2/3 and HeLa CD4 LTR b-gal cell contents results in the transactivation of the LTR and β-Galactosidase expression is then directly related to […] cell membrane fusion. Thus, these two mechanistic assays can be used to confirm and identify a virus entry-based target of the compound. Additionally, because the attachment assay uses cell-free virus this assay can be used to show applicability to cell-free virus transmission.
Twenty-four h prior to initiation of the assay cells were trypsinized, counted and 5×10^3 cells placed in a 0.2 cm well in media without selection antibiotics. To initiate the fusion assay HeLa CD4 LTR β-gal (5×10^3 cells per 0.2 cm well) were incubated with compound for 1 h at 37° C. HL2/3 cells (5×10^3) were added to the 0.2 cm well and the incubation continued for 48 h. At 48 h the wells were washed 1 time with PBS and β-galactosidase enzyme expression determined by chemiluminescence per manufacturers instructions (Tropix Gal-screen™, Tropix, Bedford, Mass.). Compound toxicity was monitored on sister plates using MTS dye reduction.
In addition to assessing inhibition of attachment with HeLa CD4 LTR β-gal cells a virus fusion assay was perfoed using HeLa CD4 LTR β-gal and HL2/3 cells. No timed addition of compound was employed, but rather the assay was performed to verify the effects of the compounds on the HeLa CD4 LTR β-gal cells β-galactosidase expression.

IIIB strain of HIV-1 = experiment: Virus attachment assay, HeLa CD4 LTR β-gal cells (Experimental Example 2); conditions: Human immunodeficiency virus 1, IIIB, HeLa, read-out: Attachment Assay IC50
[3] = tested on: cell-to-cell fusion mediated by HIV-1 Env and CD4; experiment: Fusion assay, HeLa CD4 LTR β-gal and HL2/3 cells (Experimental Example 2); conditions: Human immunodeficiency virus 1, HL2/3, read-out: Fusion Assay IC50
Procedure: (§1) The fusion assay assesses the ability of compounds to block cell-to-cell fusion mediated by HIV-1 Env and CD4 expressed on separate cells. This assay is sensitive to inhibitors of both the gp 120/CD4 interaction and inhibitors of the X4 coreceptor. HeLa CD4 LTR β-gal cells were plated in microtiter wells and diluted compounds are added and allowed to incubate at 37° C. for 1 hr prior to the addition of HL2/3 cells. The incubation was then continued for 40 to 48 h, after which fusion is monitored by measurement of β-galactosidase enzyme expression, detectable by chemiluminescence (Tropix Gal-screen, Tropix, Bedford, Mass.). Compound toxicity is monitored on a sister plate using XTT or MTS dye reduction. All determinations are performed in triplicate with serial_Log10 dilution of the test materials.

[4] = Compound toxicity in the fusion assay, sister plate, XTT or MTS (Example 2); conditions: human, HeLa CD4 LTR β-gal cells, read-out: Fusion Assay TC50
Procedure: as §1

Compound: CC1=CCC2C(C1)c1c(O)cc(C(C)(C)CCCC(C)C)cc1OC2(C)C (centres unmarked) [IMG509, 3-Norpentyl-3-(1,1,5-trimethylhexyl)-Δ8-tetrahydrocannabinol]
- IC50 (HIV-1; Experiment 1, pretreat 0 h): > 50 µM
- IC50 (HIV-1; Experiment 1, pretreat 4 h): 21 µM
- IC50 (HIV-1; Experiment 1, pretreat 24 h): 11.5 µM
- IC50 (HIV-1; Experiment 2, pretreat 0 h): 28 µM
- IC50 (HIV-1; Experiment 2, pretreat 4 h): 36 µM
- IC50 (HIV-1; Experiment 2, pretreat 24 h): 3.5 µM
- β-galactosidase production relative to background (cells alone+compounds) (HIV-1; following 24 h exposure): suppressed β-galactosidase production below background
- inhibition of HIV attachment/entry (HIV-1; following a 24 h pre-incubation): not
- Comment: transient suppression lost at lower concentrations (HIV-1; pretreat 0 h): transient suppression of virus replication; also recorded: Transient suppression lost with at lower
- Comment: suppression of β-galactosidase activity (HIV-1; pretreat 24 h): Suppression of β-galactosidase activity
- CC50 at 48 h ([1]; Experiment 1, pretreat 0 h): > 50 µM
- CC50 at 48 h ([1]; Experiment 1, pretreat 4 h): > 50 µM
- CC50 at 48 h ([1]; Experiment 1, pretreat 24 h): > 50 µM
- CC50 at 48 h ([1]; Experiment 2, pretreat 0 h): > 50 µM
- CC50 at 48 h ([1]; Experiment 2, pretreat 4 h): 37 µM
- CC50 at 48 h ([1]; Experiment 2, pretreat 24 h): 14.9 µM
- Comments: suppression of β-galactosidase activity [2]: Suppression of β-galactosidase
- IC50 (IIIB strain of HIV-1): 48.4 µM
- IC50 [3]: 1.21 µM
- CC50 [4]: 18.4 µM

From US20030232101A1, “Topical formulations of resorcinols and cannibinoids and methods of use” (Immugen Pharmaceuticals, Inc., priority 2002, published 2003)
